A short description of the data set: Moisture sorption analysis by dynamic vapor sorption (DVS). Type of data set: physicochemical. The note with it: for hygroscopicity and deliquescence: general statement, conditions not given. As for the experimental part: Compound 1 was prepared according to processes described in WO 01/72703. A sample of Compound 1 in substantially dry, amorphous form was subjected to moisture sorption analysis. Dynamic vapor sorption (DVS) was used to determine mass increase (relative to dry mass) was monitored over an adsorption range of 10-70% relative humidity (RH) in increments of 10%. As shown by the moisture sorption isotherm represented in FIG. 1, Compound 1 is hygroscopic.

Regarding `CC(=N)NCCSC[C@](C)(N)C(=O)O` [S-[2-[(1-iminoethyl)amino]ethyl]-2-methyl-L-cysteine], the hygroscopicity and deliquescence entry was “extremely hygroscopic and deliquescent”. Turning to `CC(=N)NCCSC[C@](C)(N)C(=O)O.Cl.Cl` [Compound 1, S-[2-[(1-iminoethyl)amino]ethyl]-2-methyl-L-cysteine dihydrochloride], the hygroscopicity and deliquescence entry was “extremely hygroscopic and deliquescent”. The “moisture sorption isotherm (mass increase relative to dry mass)” value (substantially dry, amorphous form, 10-70% RH in increments of 10%, FIG. 1) is given as “hygroscopic”.
